Active and inactive are the calls of the source. The rule behind the calls is not given here.
What was measured:
[1] = target: T1, Glutamate carboxypeptidase 2 (Homo sapiens, UniProt Q04609); assay: Inhibition of PSMA in human LNCaP cells; type: cell-based
Target sequence in this assay (Q04609 whole entry): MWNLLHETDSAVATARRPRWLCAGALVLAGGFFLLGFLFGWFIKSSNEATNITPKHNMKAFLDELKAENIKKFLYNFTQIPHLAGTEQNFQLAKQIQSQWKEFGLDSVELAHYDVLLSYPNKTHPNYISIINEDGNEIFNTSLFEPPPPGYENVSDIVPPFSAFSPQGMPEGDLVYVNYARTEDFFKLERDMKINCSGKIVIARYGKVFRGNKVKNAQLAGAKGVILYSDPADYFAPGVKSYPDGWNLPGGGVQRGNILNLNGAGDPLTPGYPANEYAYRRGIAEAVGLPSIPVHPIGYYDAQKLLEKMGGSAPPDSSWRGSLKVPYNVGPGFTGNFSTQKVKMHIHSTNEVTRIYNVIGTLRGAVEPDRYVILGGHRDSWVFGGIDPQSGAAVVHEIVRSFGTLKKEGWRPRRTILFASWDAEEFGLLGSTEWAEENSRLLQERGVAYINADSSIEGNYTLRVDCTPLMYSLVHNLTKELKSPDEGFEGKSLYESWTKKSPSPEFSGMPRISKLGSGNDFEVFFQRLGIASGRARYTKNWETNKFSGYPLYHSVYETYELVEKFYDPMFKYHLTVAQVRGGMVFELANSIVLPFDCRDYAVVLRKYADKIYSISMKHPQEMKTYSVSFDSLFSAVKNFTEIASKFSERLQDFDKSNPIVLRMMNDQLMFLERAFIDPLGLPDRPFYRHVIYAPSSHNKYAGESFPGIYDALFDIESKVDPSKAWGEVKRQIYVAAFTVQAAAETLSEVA

[2] = target: T1, Glutamate carboxypeptidase 2; assay: Reversible inhibition of purified PSMA at 10 times IC50 after 25 mins measured after 100 fold dilution
Target sequence in this assay (Q04609 whole entry, looked up): as the sequence (Q04609 whole entry) above

SMILES | IC50 [1] [nM] | Activity [2]
CCN1/C(=C/C=C/C=C/C2=[N+](CCCCCC(=O)N[C@@H](CCC(=O)N[C@@H](COP(=O)([O-])O[C@@H](CCC(=O)O)C(=O)O)C(=O)O)C(=O)O)c3ccc4c(S(=O)(=O)O)cc(S(=O)(=O)O)cc4c3C2(C)C)C(C)(C)c2c1ccc1c(S(=O)(=O)O)cc(S(=O)(=O)O)cc21 | 0.55 | Active
CCN1/C(=C/C=C/C=C/C2=[N+](CCCCCC(=O)[O-])c3ccc4c(S(=O)(=O)O)cc(S(=O)(=O)O)cc4c3C2(C)C)C(C)(C)c2c1ccc1c(S(=O)(=O)O)cc(S(=O)(=O)O)cc21 | 6100 | 
N[C@@H](CCC(=O)N[C@@H](COP(=O)(O)O[C@@H](CCC(=O)O)C(=O)O)C(=O)O)C(=O)O | 144 | Active
